Data as given in the supplement of paper PMC11451515.

Tested on: NOMO1
Assay: cell viability relative to DMSO control; higher = less cytotoxic
Details: 48 h
Method in brief: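 Viability was expressed as a per-plate percentage of DMSO wells, with cell-free wells as background. Leukemia cells (NOMO1 or SEM at 500 cells/well, P12-Ichikawa at 1000 cells/well) were adapted for at least four passages in each medium and seeded in 1536-well plates (5 μl). Library compounds in DMSO were pin-dosed over an 11-point threefold series from 47 μM to 0.79 nM, and CellTiter-Glo One luminescence was read after 48 h at 37°C.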

[1] = HPLM + 10% dialyzed FBS, 0.000781 µM
[2] = HPLM + 10% dialyzed FBS, 0.00234 µM
[3] = HPLM + 10% dialyzed FBS, 0.00702 µM
[4] = HPLM + 10% dialyzed FBS, 0.0211 µM
[5] = HPLM + 10% dialyzed FBS, 0.0632 µM
[6] = HPLM + 10% dialyzed FBS, 0.19 µM
[7] = HPLM + 10% dialyzed FBS, 0.569 µM
[8] = HPLM + 10% dialyzed FBS, 1.71 µM
[9] = HPLM + 10% dialyzed FBS, 5.12 µM
[10] = HPLM + 10% dialyzed FBS, 15.4 µM
[11] = HPLM + 10% dialyzed FBS, 46.1 µM
[12] = RPMI 5 mM glucose + 10% FBS, 0.000781 µM
[13] = RPMI 5 mM glucose + 10% FBS, 0.00234 µM
[14] = RPMI 5 mM glucose + 10% FBS, 0.00702 µM
[15] = RPMI 5 mM glucose + 10% FBS, 0.0211 µM
[16] = RPMI 5 mM glucose + 10% FBS, 0.0632 µM
[17] = RPMI 5 mM glucose + 10% FBS, 0.19 µM
[18] = RPMI 5 mM glucose + 10% FBS, 0.569 µM
[19] = RPMI 5 mM glucose + 10% FBS, 1.71 µM
[20] = RPMI 5 mM glucose + 10% FBS, 5.12 µM
[21] = RPMI 5 mM glucose + 10% FBS, 15.4 µM
[22] = RPMI 5 mM glucose + 10% FBS, 46.1 µM
[23] = RPMI 5 mM glucose + 10% dialyzed FBS, 0.000781 µM
[24] = RPMI 5 mM glucose + 10% dialyzed FBS, 0.00234 µM
[25] = RPMI 5 mM glucose + 10% dialyzed FBS, 0.00702 µM
[26] = RPMI 5 mM glucose + 10% dialyzed FBS, 0.0211 µM
[27] = RPMI 5 mM glucose + 10% dialyzed FBS, 0.0632 µM
[28] = RPMI 5 mM glucose + 10% dialyzed FBS, 0.19 µM
[29] = RPMI 5 mM glucose + 10% dialyzed FBS, 0.569 µM
[30] = RPMI 5 mM glucose + 10% dialyzed FBS, 1.71 µM
[31] = RPMI 5 mM glucose + 10% dialyzed FBS, 5.12 µM
[32] = RPMI 5 mM glucose + 10% dialyzed FBS, 15.4 µM
[33] = RPMI 5 mM glucose + 10% dialyzed FBS, 46.1 µM

| Structure (SMILES) | cell viability [1] [%] | cell viability [2] [%] | cell viability [3] [%] | cell viability [4] [%] | cell viability [5] [%] | cell viability [6] [%] | cell viability [7] [%] | cell viability [8] [%] | cell viability [9] [%] | cell viability [10] [%] | cell viability [11] [%] | cell viability [12] [%] | cell viability [13] [%] | cell viability [14] [%] | cell viability [15] [%] | cell viability [16] [%] | cell viability [17] [%] | cell viability [18] [%] | cell viability [19] [%] | cell viability [20] [%] | cell viability [21] [%] | cell viability [22] [%] | cell viability [23] [%] | cell viability [24] [%] | cell viability [25] [%] | cell viability [26] [%] | cell viability [27] [%] | cell viability [28] [%] | cell viability [29] [%] | cell viability [30] [%] | cell viability [31] [%] | cell viability [32] [%] | cell viability [33] [%] |
| --- | --- | --- | --- | --- | --- | --- | --- | --- | --- | --- | --- | --- | --- | --- | --- | --- | --- | --- | --- | --- | --- | --- | --- | --- | --- | --- | --- | --- | --- | --- | --- | --- | --- |
| C=C[C@H]1CN2CCC1C[C@@H]2C(O)c1ccnc2ccc(OC)cc12 (some centres not stated) | 111 | 133 | 115 | 107 | 135 | 116 | 128 | 108 | 105 | 125 | 102 | 111 | 116 | 114 | 108 | 127 | 120 | 119 | 119 | 116 | 107 | 104 | 110 | 119 | 116 | 121 | 124 | 110 | 127 | 117 | 106 | 107 | 100 |
| COc1ccc(C(=O)CC2(O)C(=O)Nc3c(Cl)ccc(Cl)c32)cc1 (configuration not stated) | 111 | 115 | 128 | 119 | 106 | 119 | 120 | 121 | 77.3 | 34.5 | 26.7 | 95.6 | 108 | 119 | 111 | 109 | 113 | 109 | 123 | 101 | 25.6 | 18.6 | 89.5 | 111 | 110 | 108 | 108 | 120 | 117 | 108 | 99.2 | 26.6 | 22.4 |
| O=C(c1ccccc1)c1ccc2n1CCC2C(=O)O (configuration not stated) | – | – | – | – | – | – | – | – | – | – | – | 121 | 113 | 125 | 130 | 108 | 122 | 120 | 110 | 111 | 115 | 98.6 | 107 | 115 | 110 | 121 | 125 | 108 | 116 | 115 | 97.4 | 103 | 107 |
| CC(C(=O)O)c1ccc2c(c1)CC(=O)c1ccccc1S2 (configuration not stated) | 114 | 106 | 113 | 120 | 121 | 128 | 109 | 87.2 | 68.2 | 25.7 | 30.6 | 104 | 115 | 116 | 112 | 107 | 106 | 103 | 103 | 103 | 22.3 | 21.2 | 99.6 | 116 | 94.2 | 105 | 113 | 105 | 103 | 85.3 | 87.7 | 23 | 24 |
| CCOC(=O)C(C)OC1=CC=CC2=C1\C=C/N(CC(=O)NC3=CC=C4OCCOC4=C3)C2=O (configuration not stated) | 82.7 | 96.6 | 94.4 | 97.2 | 90.8 | 98.5 | 99.8 | 94.7 | 80.5 | 81.8 | 97.2 | 81.7 | 89.4 | 101 | 96.8 | 91 | 88.8 | 96.7 | 87.8 | 89.4 | 89.5 | 87.5 | 92.3 | 89.8 | 98.2 | 92.2 | 94.6 | 92.3 | 94.9 | 88.8 | 74.6 | 91.9 | 109 |
| CN1\C=N/C2=CC=C(NC3=CC(=CC=C3C)NC(=O)C4=CC(=CC=C4)C(C)(C)C#N)C=C2C1=O | 97.8 | 107 | 96.4 | 105 | 92.7 | 94.6 | 76.8 | 76.3 | 52.1 | 52.7 | 19.1 | 93.6 | 95.1 | 111 | 99 | 89.6 | 88.5 | 81.2 | 75.6 | 47.7 | 46.3 | 28.1 | 110 | 92.4 | 92.9 | 101 | 91.2 | 79.2 | 76.6 | 65.5 | 46.8 | 46.3 | 28.6 |
| Nc1c2c(nc3ccccc13)CCCC2 | 129 | 105 | 122 | 125 | 118 | 100 | 117 | 31.8 | 83.6 | 35.5 | 10.3 | 113 | 123 | 115 | 117 | 108 | 117 | 115 | 41.6 | 98.3 | 40.2 | 8.53 | 118 | 105 | 112 | 119 | 128 | 111 | 111 | 67.9 | 80.1 | 51 | 19.2 |
| C[C@]12CC[C@H]3[C@@H](CCC4=CC(=O)CC[C@@H]43)[C@@H]1CC[C@@H]2OC(=O)CCc1ccccc1 | – | – | – | – | – | – | – | – | – | – | – | 126 | 115 | 119 | 130 | 114 | 113 | 112 | 133 | 115 | 128 | 78 | 120 | 127 | 115 | 124 | 141 | 135 | 144 | 133 | 128 | 137 | 68.7 |
| Nc1ccc([S+](=O)([O-])Nc2ccnn2-c2ccccc2)cc1 | 85.1 | 97.6 | 104 | 101 | 108 | 98.6 | 100 | 98.3 | 107 | 102 | 113 | 84.7 | 98.5 | 97.8 | 105 | 98.9 | 97 | 99.4 | 95.6 | 102 | 94.1 | 96.8 | 81.4 | 90.1 | 91.8 | 95.1 | 100 | 104 | 94.7 | 93.8 | 90.1 | 92.6 | 101 |
| CCCCN(CCCC)CC(O)c1cc(Cl)cc2c1-c1ccc(Cl)cc1/C2=C/c1ccc(Cl)cc1 (configuration not stated) | 94.7 | 87.5 | 104 | 107 | 93.6 | 107 | 90.5 | 97.9 | 82.6 | 95 | 92.6 | 83.3 | 102 | 94.6 | 87.1 | 105 | 86.9 | 87.5 | 90.7 | 104 | 94.9 | 97.8 | 104 | 91.8 | 93.7 | 104 | 99.4 | 104 | 102 | 89.8 | 95.4 | 72.9 | 103 |
| CCCCCNC(=O)N1CCC(CN(Cc2ccc(Cl)cc2)Cc2ccc([N+](=O)[O-])s2)C1 (configuration not stated) | – | – | – | – | – | – | – | – | – | – | – | 123 | 111 | 104 | 102 | 107 | 120 | 108 | 112 | 110 | 94.5 | 94.8 | – | – | – | – | – | – | – | – | – | – | – |
| O=C(O)CCNC(=O)c1ccc(/N=N/c2ccc(O)c(C(=O)O)c2)cc1 | – | – | – | – | – | – | – | – | – | – | – | 106 | 125 | 113 | 122 | 110 | 110 | 117 | 106 | 117 | 116 | 76.7 | – | – | – | – | – | – | – | – | – | – | – |
| O=C(O)c1cc(/N=N/c2ccc([S+](=O)([O-])Nc3ccccn3)cc2)ccc1O | 102 | 113 | 108 | 104 | 121 | 109 | 104 | 115 | 111 | 105 | 91 | 101 | 107 | 115 | 96.8 | 99.2 | 102 | 102 | 98.2 | 114 | 98.7 | 97.6 | 95.1 | 96.9 | 109 | 94.3 | 106 | 97 | 115 | 111 | 91.2 | 98.9 | 102 |
| CN1CC(=O)N2[C@H](c3ccc4c(c3)OCO4)c3[nH]c4ccccc4c3C[C@@H]2C1=O | 111 | 99.6 | 109 | 107 | 103 | 94.8 | 98.7 | 83.3 | 91.5 | 90.7 | 74.8 | 97.2 | 96.1 | 89.1 | 88.4 | 101 | 101 | 97 | 83.9 | 92.8 | 97.8 | 77 | 107 | 93.5 | 97.6 | 98.3 | 88.4 | 103 | 98.9 | 89 | 81.3 | 109 | 79.1 |
| Cc1ccc([S+](=O)([O-])OCC(=O)Nc2ccc(C(=O)O)c(O)c2)cc1 | 141 | 123 | 121 | 117 | 124 | 145 | 128 | 132 | 124 | 146 | 84.1 | 122 | 119 | 124 | 139 | 133 | 150 | 133 | 130 | 118 | 121 | 102 | 106 | 113 | 127 | 121 | 131 | 139 | 142 | 142 | 146 | 146 | 122 |
| O=C(O)c1cccnc1Nc1cccc(C(F)(F)F)c1 | 112 | 124 | 129 | 104 | 122 | 131 | 150 | 142 | 132 | 129 | 135 | 105 | 116 | 108 | 116 | 110 | 128 | 124 | 122 | 125 | 132 | 120 | 97.1 | 101 | 101 | 114 | 114 | 117 | 120 | 111 | 115 | 120 | 106 |
